Data taken from US10273267B2, “Beta-hairpin peptidomimetics as selective elastase inhibitors” (POLYPHOR AG, priority 2013, dated 2019).
*1 amine or outer side, *2 acyl side, *3 side chain or, on linkers, in order; H or OH if unused. Where a SMILES comes first, the peptide text is derived from it. [ ]: non-standard residue; d: D form. X1 = NCCCC[C@@H](CCC(=O)[*:2])N[*:1]; Gly(octyl) = CCCCCCCC[C@H](N)C(=O)O; hTyr = N[C@@H](CCc1ccc(O)cc1)C(=O)O; Aze = O=C(O)[C@@H]1CCN1; Dab = NCC[C@H](N)C(=O)O; Dap = NC[C@H](N)C(=O)O; Nlys = NCCCCNCC(=O)O

Legend:
Assay type in all cases: biochemical
[1] = biological target: T1, human neutrophil elastase (Homo sapiens, UniProt P08246); assay: Inhibition of human neutrophil elastase (hydrolysis of MeOSuc-AAPV-pNA); settings: substrate MeOSuc-AAPV-pNA 0.3 mM, enzyme 10 nM, 37° C., pH 8; read-out: Human neutrophil elastase (hNE) IC50
T1 construct: purchased Serva Electrophoresis, Germany
T1 sequence (P08246 30-267): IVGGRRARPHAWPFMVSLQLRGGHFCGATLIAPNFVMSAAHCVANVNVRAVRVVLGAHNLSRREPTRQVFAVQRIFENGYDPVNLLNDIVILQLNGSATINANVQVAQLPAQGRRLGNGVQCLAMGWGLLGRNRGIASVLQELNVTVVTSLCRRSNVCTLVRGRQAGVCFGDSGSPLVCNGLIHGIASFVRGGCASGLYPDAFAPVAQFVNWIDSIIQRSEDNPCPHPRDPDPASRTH
Experimental: 2.2 Inhibition of Human Neutrophil Elastase
The ability of the peptides of the invention to inhibit the hydrolysis activity of human neutrophil elastase (Serva Electrophoresis, Germany) using the synthetic tetrapeptidic substrate MeOSuc-AAPV-pNA (Bachem, Switzerland) was determined as follows:
(§1) The above substrate (0.3 mM) and human neutrophil elastase (10 nM) were incubated at 37° C. with serial dilutions of the peptides (1% DMSO final) in assay buffer (50 mM Tris, pH 8, 300 mM NaCl, 0.01% Tween20). The release of pNA was followed by monitoring the change in absorbance at 405 nm for 30 minutes. Control assays with the same assay set-up as above, but without peptide, ran linearly. The dose-response data were fitted to the 4-parameter Hill equation providing the IC50 value using Graphpad (Prism 5).

[2] = biological target: T2, porcine pancreatic elastase (Sus scrofa, UniProt P00772); assay: Inhibition of porcine pancreatic elastase (hydrolysis of MeOSuc-AAA-pNA); settings: for hNE/PPE selectivity: ratio of PPE IC50 to hNE IC50; for IC50: substrate MeOSuc-AAA-pNA 1 mM, enzyme 15 nM, 37° C., pH8, read-out: Porcine pancreatic elastase (PPE) IC50
T2 construct: purchased Sigma, USA
T2 sequence (P00772 27-266): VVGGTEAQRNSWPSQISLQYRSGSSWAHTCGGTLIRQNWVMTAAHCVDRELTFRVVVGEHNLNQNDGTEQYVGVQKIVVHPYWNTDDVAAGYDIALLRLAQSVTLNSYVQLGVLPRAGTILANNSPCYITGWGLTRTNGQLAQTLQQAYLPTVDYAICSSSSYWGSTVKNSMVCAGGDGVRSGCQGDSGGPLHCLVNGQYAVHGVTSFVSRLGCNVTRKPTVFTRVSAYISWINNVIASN
Experimental: 2.3 Inhibition of Porcine Pancreatic Elastase
The ability of the peptides of the invention to inhibit the hydrolysis activity of porcine pancreatic elastase (Sigma, USA) using the synthetic tripeptidic substrate MeOSuc-AAA-pNA (Bachem, Switzerland) was determined as follows:
as §1, with “(1” for “(0.3”, “porcine pancreatic” for “neutrophil”, “(15” for “(10”, “(0.5%” for “(1%”, “pH8, 100” for “pH 8, 300”

[3] = biological target: T3, human proteinase 3 (Homo sapiens, UniProt P24158); assay: Inhibition of human proteinase 3 (substrate Boc-Ala-Ala-Nva-SBzl); settings: for hNE/hPr3 selectivity: ratio of hPr3 IC50 to hNE IC50; for IC50: substrate Boc-Ala-Ala-Nva-SBzl 1 mM, enzyme 10 nM, 37° C., pH7.4, read-out: Human proteinase 3 (hPr3) IC50
T3 construct: purchased Elastin Products Company, USA
T3 sequence (P24158 28-248): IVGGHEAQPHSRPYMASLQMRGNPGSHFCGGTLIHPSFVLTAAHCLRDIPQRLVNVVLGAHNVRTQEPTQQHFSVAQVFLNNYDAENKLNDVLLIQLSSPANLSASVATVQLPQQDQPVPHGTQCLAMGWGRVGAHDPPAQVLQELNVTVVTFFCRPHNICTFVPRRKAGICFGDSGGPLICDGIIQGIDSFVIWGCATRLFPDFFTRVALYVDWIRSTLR
Experimental: 2.4 Inhibition of Human Proteinase 3
The inactivation of human proteinase 3 (Elastin Products Company, USA) by the peptides of the invention using synthetic tripeptidic substrate Boc-Ala-Ala-Nva-SBzl (Elastin Products Company, USA) was determined as follows:
as §1, with “(1 mM), 4,4′-dithiodipyridine (250 μM)” for “(0.3 mM)”, “proteinase 3” for “neutrophil elastase”, “(0.5%” for “(1%”, “pH7.4, 150” for “pH 8, 300”, “reaction process” for “release of pNA”, “340” for “405”

SMILES	IC50 [1] [µM]	hNE/PPE selectivity [2]	IC50 [2] [µM]	hNE/hPr3 selectivity [3]	IC50 [3] [µM]
CCCCCCCC[C@@H]1NC(=O)[C@@H]2CCCN2C(=O)[C@H]2CCCN2C(=O)[C@H]([C@@H](C)O)NC(=O)CC[C@H](CCCCN)NC(=O)[C@H](CCC(N)=O)NC(=O)[C@@H]2CCCN2C(=O)[C@@H]2CCCN2C(=O)[C@H]([C@@H](C)CC)NC(=O)[C@H](CO)NC(=O)[C@H](C)NC(=O)[C@H]([C@@H](C)O)NC(=O)[C@H](CCC(=O)O)NC1=O [Example 38, Cyclo(-OctGly-Glu-Thr-Ala-Ser-Ile-Pro-Pro-Gln-[H-γ^4-DiHLys-OH]-Thr-^DPro-Pro-)] (cyclo([Gly(octyl)]ETASIPPQ[X1]T[dP]P))	0.0172	535	9.2	535	9.2
CCCCCCCC[C@@H]1NC(=O)[C@@H]2CCCN2C(=O)[C@H]2CCCN2C(=O)[C@H]([C@@H](C)O)NC(=O)[C@H](CCCCN)NC(=O)[C@H](CCC(N)=O)NC(=O)[C@@H]2CCN2C(=O)[C@@H]2CCCN2C(=O)[C@H]([C@@H](C)CC)NC(=O)[C@H](CO)NC(=O)[C@H](C)NC(=O)[C@H]([C@@H](C)O)NC(=O)[C@H](CCC(=O)O)NC1=O [Example 46, Cyclo(-OctGly-Glu-Thr-Ala-Ser-Ile-Pro-Azt-Gln-Lys-Thr-^DPro-Pro-)] (cyclo([Gly(octyl)]ETASIP[Aze]QKT[dP]P))	0.0071	268	1.9	310	2.2
CCCCCCCC[C@@H]1NC(=O)[C@H](CCCCN)NC(=O)[C@@H](Cc2ccc(O)cc2)NC(=O)[C@H]([C@@H](C)O)NC(=O)[C@H](CCCCN)NC(=O)[C@H](CCC(N)=O)NC(=O)[C@@H]2CCCN2C(=O)[C@@H]2CCCN2C(=O)[C@H]([C@@H](C)CC)NC(=O)[C@H](CO)NC(=O)[C@H](C)NC(=O)[C@H]([C@@H](C)O)NC(=O)[C@H](CCC(=O)O)NC1=O [Example 25, Cyclo(-OctGly-Glu-Thr-Ala-Ser-Ile-Pro-Pro-GI n-Lys-Thr-^DTyr-Lys-)] (cyclo([Gly(octyl)]ETASIPPQKT[dY]K))	0.0064	7031	45	6531	41.8
CC[C@H](C)[C@@H]1NC(=O)[C@H](CO)NC(=O)[C@H](C)NC(=O)[C@H]([C@@H](C)O)NC(=O)[C@H](CCC(=O)O)NC(=O)[C@H](CCNC(=O)[C@@H](N)Cc2ccccc2)NC(=O)[C@@H]2CCCN2C(=O)[C@H]2CCCN2C(=O)[C@H](Cc2ccc(O)cc2)NC(=O)[C@H](CCCCN)NC(=O)[C@H](CCC(N)=O)NC(=O)[C@@H]2CCCN2C(=O)[C@@H]2CCCN2C1=O [Example 9, Cyclo(-Dab(Phe)-Glu-Thr-Ala-Ser-Ile-Pro-Pro-Gln-Lys-Tyr-^DPro-Pro-)] (cyclo([Dab](Phe)ETASIPPQKY[dP]P))	0.0173	215	3.72	711	12.3
CCCCCCCC[C@@H]1NC(=O)[C@@H]2CCCN2C(=O)[C@H]2CCCN2C(=O)[C@H](Cc2ccc(O)cc2)NC(=O)[C@H](CCCCN)NC(=O)[C@H](CCC(N)=O)NC(=O)[C@@H]2CCCN2C(=O)[C@@H]2CCCN2C(=O)[C@H]([C@@H](C)CC)NC(=O)[C@H](CO)NC(=O)[C@H](C)NC(=O)[C@H]([C@@H](C)O)NC(=O)[C@H](CNC(=O)[C@@H](N)Cc2ccccc2)NC1=O [Example 14, Cyclo(-OctGly-Dap(Phe)-Thr-Ala-Ser-Ile-Pro-Pro-Gln-Lys-Tyr-^DPro-Pro-)] (cyclo([Gly(octyl)][Dap](Phe)TASIPPQKY[dP]P))	0.015	367	5.5	1733	26
CCCCCCCC[C@@H]1NC(=O)[C@H](C)NC(=O)[C@@H](C)NC(=O)[C@H]([C@@H](C)O)NC(=O)[C@H](CCCCN)NC(=O)[C@H](CCC(N)=O)NC(=O)[C@@H]2CCCN2C(=O)[C@@H]2CCCN2C(=O)[C@H]([C@@H](C)CC)NC(=O)[C@H](CO)NC(=O)[C@H](C)NC(=O)[C@H]([C@@H](C)O)NC(=O)[C@H](CCC(=O)O)NC1=O [Example 20, Cyclo(-OctGly-Glu-Thr-Ala-Ser-Ile-Pro-Pro-GI n-Lys-Thr-^DAla-Ala-)] (cyclo([Gly(octyl)]ETASIPPQKT[dA]A))	0.0133	2128	28.3	669	8.9
CCCCCCCC[C@@H]1NC(=O)[C@@H]2CCCN2C(=O)[C@H]2CCCN2C(=O)[C@H]([C@@H](C)O)NC(=O)[C@H](CCCCN)NC(=O)[C@H](CCC(N)=O)NC(=O)CN(CCCCN)C(=O)[C@@H]2CCCN2C(=O)[C@H]([C@@H](C)CC)NC(=O)[C@H](CO)NC(=O)[C@H](C)NC(=O)[C@H]([C@@H](C)O)NC(=O)[C@H](CCC(=O)O)NC1=O [Example 35, Cyclo(-OctGly-Glu-Thr-Ala-Ser-Ile-Pro-Nlys-Gln-Lys-Thr-^DPro-Pro-)] (cyclo([Gly(octyl)]ETASIP[Nlys]QKT[dP]P))	0.0077	208	1.6	195	1.5

The next lines start with the values.

IC50 [1] [µM]	hNE/PPE selectivity [2]	IC50 [2] [µM]	hNE/hPr3 selectivity [3]	IC50 [3] [µM]	SMILES
0.0129	822	10.6	1008	13	CCCCCCCC[C@@H]1NC(=O)[C@H](Cc2ccc(O)cc2)NC(=O)[C@@H](C(C)C)NC(=O)[C@H]([C@@H](C)O)NC(=O)[C@H](CCCCN)NC(=O)[C@H](CCC(N)=O)NC(=O)[C@@H]2CCCN2C(=O)[C@@H]2CCCN2C(=O)[C@H]([C@@H](C)CC)NC(=O)[C@H](CO)NC(=O)[C@H](C)NC(=O)[C@H]([C@@H](C)O)NC(=O)[C@H](CCC(=O)O)NC1=O [Example 21, Cyclo(-OctGly-Glu-Thr-Ala-Ser-Ile-Pro-Pro-GI n-Lys-Thr-^DVal-Tyr-)] (cyclo([Gly(octyl)]ETASIPPQKT[dV]Y))
0.0229	2275	52.1	1432	32.8	CCCCCCCC[C@@H]1NC(=O)[C@H](Cc2ccc(O)cc2)NC(=O)[C@@H](CO)NC(=O)[C@H]([C@@H](C)O)NC(=O)[C@H](CCCCN)NC(=O)[C@H](CCC(N)=O)NC(=O)[C@@H]2CCCN2C(=O)[C@@H]2CCCN2C(=O)[C@H]([C@@H](C)CC)NC(=O)[C@H](CO)NC(=O)[C@H](C)NC(=O)[C@H]([C@@H](C)O)NC(=O)[C@H](CCC(=O)O)NC1=O [Example 31, Cyclo(-OctGly-Glu-Thr-Ala-Ser-Ile-Pro-Pro-GI n-Lys-Thr-^DSer-Tyr-)] (cyclo([Gly(octyl)]ETASIPPQKT[dS]Y))
0.0153	2490	38.1	627	9.6	CC[C@H](C)[C@@H]1NC(=O)[C@H](CO)NC(=O)[C@H](C)NC(=O)[C@H]([C@@H](C)O)NC(=O)[C@H](CCc2ccc(O)cc2)NC(=O)[C@H](CCCNC(=N)N)NC(=O)[C@H](CCC(=O)O)NC(=O)[C@H]2CCCN2C(=O)[C@H]([C@@H](C)O)NC(=O)[C@H](CCCCN)NC(=O)[C@H](CCC(N)=O)NC(=O)[C@@H]2CCCN2C(=O)[C@@H]2CCCN2C1=O [Example 49] (cyclo(R[hTyr]TASIPPQKT[dP]E))
